Where only a bound is given, the exact number is not on record here.

For one assay, the target named is T1, HER2 WT (Homo sapiens, UniProt P04626).
T1 construct: purchased ProQinase, Freiburg, Germany ERBB2 0108-0000-1
The experiment in a line: Enzymatic assay HER2 WT (method a). In kind it is biochemical. To be noted: [HER2 WT]=12.5 nM, [ATP]=25 μM, [Peptide 22]=1 μM. The method in brief:
(§1)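 Initial rates over 0–3600 s, read as substrate-to-product conversion by capillary electrophoresis, were converted to percent inhibition and fitted with a variable-slope curve to give IC50. Conditions: EGFR WT 2 nM with 1 mM ATP; HER2 YVMA 5 nM or HER2 WT 12.5 nM, each with 25 μM ATP. All used 1 μM Peptide 22 in pH 7.5 HEPES/Mn/Mg buffer.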

For another assay, the target named is HER2YVMA (Homo sapiens, UniProt P04626, INS775YVMA). Description: Enzymatic assay HER2YVMA (method b). As to conditions: [HER2YVMA]=5 nM, [ATP]=25 μM, [Peptide 22]=1 μM. In kind it is biochemical. Also on record: purchased Viva biotech, Shanghai, China custom purification. The gist of the method:
as §1

T1 sequence (P04626 23-1255): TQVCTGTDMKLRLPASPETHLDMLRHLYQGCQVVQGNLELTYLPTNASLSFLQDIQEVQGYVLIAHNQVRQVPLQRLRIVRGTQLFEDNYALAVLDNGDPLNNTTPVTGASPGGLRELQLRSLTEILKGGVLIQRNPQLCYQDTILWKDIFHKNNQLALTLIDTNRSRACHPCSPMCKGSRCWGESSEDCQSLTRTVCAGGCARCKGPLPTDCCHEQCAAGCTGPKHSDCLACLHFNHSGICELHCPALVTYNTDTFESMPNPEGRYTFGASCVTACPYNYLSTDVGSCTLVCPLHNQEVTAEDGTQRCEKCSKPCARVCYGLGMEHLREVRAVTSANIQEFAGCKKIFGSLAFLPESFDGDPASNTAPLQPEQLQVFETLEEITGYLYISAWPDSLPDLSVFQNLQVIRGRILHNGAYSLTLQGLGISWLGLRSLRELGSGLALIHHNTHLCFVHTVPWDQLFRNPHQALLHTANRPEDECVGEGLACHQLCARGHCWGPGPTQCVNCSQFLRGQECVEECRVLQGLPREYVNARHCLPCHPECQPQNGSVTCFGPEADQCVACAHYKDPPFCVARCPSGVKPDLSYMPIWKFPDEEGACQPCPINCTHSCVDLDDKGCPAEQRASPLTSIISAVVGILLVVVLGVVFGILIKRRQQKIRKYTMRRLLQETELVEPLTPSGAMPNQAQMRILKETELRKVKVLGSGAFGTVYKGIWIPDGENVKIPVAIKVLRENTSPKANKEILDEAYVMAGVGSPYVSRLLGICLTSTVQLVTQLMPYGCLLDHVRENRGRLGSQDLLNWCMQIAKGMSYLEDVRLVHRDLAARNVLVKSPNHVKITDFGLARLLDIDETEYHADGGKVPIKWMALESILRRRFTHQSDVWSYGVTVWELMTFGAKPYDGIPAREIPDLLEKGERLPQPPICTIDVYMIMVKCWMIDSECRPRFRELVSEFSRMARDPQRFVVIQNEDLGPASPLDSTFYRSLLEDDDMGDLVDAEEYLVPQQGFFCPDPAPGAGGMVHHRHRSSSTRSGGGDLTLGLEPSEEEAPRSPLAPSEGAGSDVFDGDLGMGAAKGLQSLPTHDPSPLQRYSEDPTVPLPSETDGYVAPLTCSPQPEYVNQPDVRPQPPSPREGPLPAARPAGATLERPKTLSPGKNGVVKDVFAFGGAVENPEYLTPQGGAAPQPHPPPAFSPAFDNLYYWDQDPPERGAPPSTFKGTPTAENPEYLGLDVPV
Chain of HER2YVMA (P04626 with tags, fused parts or gaps INS775YVMA): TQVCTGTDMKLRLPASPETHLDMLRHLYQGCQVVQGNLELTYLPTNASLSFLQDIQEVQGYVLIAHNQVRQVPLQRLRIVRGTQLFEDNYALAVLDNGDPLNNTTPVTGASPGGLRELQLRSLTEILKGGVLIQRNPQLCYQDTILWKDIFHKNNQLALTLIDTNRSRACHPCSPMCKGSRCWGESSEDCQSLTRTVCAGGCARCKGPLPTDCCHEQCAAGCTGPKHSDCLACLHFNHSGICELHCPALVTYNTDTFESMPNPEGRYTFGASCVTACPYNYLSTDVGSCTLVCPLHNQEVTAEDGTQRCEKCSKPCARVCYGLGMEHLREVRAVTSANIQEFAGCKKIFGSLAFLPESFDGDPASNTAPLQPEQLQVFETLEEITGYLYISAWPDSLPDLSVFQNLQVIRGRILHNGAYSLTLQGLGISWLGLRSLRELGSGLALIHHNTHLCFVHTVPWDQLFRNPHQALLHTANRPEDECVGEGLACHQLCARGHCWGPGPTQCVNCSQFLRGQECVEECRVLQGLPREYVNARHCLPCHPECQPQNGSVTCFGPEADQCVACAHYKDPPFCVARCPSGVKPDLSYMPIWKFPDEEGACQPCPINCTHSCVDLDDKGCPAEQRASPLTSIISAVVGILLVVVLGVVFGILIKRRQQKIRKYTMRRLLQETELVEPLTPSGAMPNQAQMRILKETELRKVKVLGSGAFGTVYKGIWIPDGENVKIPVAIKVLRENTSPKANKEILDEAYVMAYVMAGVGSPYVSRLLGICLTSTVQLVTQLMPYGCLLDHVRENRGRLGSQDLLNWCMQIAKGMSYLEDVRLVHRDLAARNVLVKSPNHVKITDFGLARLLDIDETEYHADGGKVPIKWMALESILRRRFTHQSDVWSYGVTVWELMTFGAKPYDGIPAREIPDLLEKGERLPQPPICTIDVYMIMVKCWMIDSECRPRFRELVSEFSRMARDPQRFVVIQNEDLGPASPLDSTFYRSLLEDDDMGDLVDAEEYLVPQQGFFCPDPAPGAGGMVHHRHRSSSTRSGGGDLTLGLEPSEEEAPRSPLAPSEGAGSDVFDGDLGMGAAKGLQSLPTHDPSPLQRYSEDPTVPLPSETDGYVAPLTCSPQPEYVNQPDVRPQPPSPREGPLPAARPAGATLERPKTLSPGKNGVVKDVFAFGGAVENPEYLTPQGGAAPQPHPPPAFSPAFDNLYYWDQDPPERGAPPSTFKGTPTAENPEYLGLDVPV

As for `Cc1cn2ccc(Oc3ccc(Nc4ncnc5sc6c(c45)CCN(C(=O)/C=C/CN(C)C)C6)cc3C)cc2n1` [Compound 110, (E)-4-(dimethylamino)-1-(4-((3-methyl-4-((2-methylimidazo[1,2-a]pyridin-7-yl)oxy)phenyl)amino)-5,8-dihydropyrido[4′,3′:4,5]thieno[2,3-d]pyrimidin-7(6H)-yl)but-2-en-1-one], the IC50 on HER2 WT was 100 to 1000 nM; against HER2YVMA it was < 100 nM.

`COc1ccc(Oc2ccc(Nc3ncnc4sc5c(c34)CCN(C(=O)/C=C/CN3CC[C@@H](CO)C3)C5)cc2C)cn1` [Compound 143]: the IC50 at HER2 WT and on HER2YVMA was < 100 nM throughout.

`Cc1ccc(Oc2ccc(Nc3ncnc4sc5c(c34)CN(C(=O)/C=C/CN(C)C)C5C)cc2C)cn1` (stereo not shown) [Compound 153, (E)-4-(dimethylamino)-1-(7-methyl-4-((3-methyl-4-((6-methylpyridin-3-yl)oxy)phenyl)amino)-5,7-dihydro-6H-pyrrolo[3′,4′:4,5]thieno[2,3-d]pyrimidin-6-yl)but-2-en-1-one]: the figures for the IC50 at HER2 WT and against HER2YVMA were 100 to 1000 nM and < 100 nM, respectively.

As to `Cc1ccc(Oc2ccc(Nc3ncnc4sc5c(c34)CCN(C(=O)/C=C/CN3CCC(CO)(CO)CC3)C5)cc2C)cn1` [Compound 135], the IC50 against HER2 WT and against HER2YVMA was < 100 nM throughout.

Consider `Cc1ccc(Oc2ccc(Nc3ncnc4sc5c(c34)C[C@@H](C)N(C(=O)/C=C/CN(C)C)[C@@H]5C)cc2C)cn1` (racemic) [Compound 165, (E)-1-(6,8-trans-dimethyl-4-((3-methyl-4-((6-methylpyridin-3-yl)oxy)phenyl)amino)-5,8-dihydropyrido[4′,3′:4,5]thieno[2,3-d]pyrimidin-7(6H)-yl)-4-(dimethylamino)but-2-en-1-one], for which the IC50 on HER2 WT and against HER2YVMA was 100 to 1000 nM each time.

Consider `Cc1ccc(Oc2ccc(Nc3ncnc4sc5c(c34)C(C)CN(C(=O)/C=C/CN(C)C)C5)cc2Cl)cn1` (stereo not shown) [Compound 171, (E)-1-(4-((3-Chloro-4-((6-methylpyridin-3-yl)oxy)phenyl)amino)-5-methyl-5,6-dihydropyrido[4′,3′:4,5]thieno[2,3-d]pyrimidin-7(8H)-yl)-4-(dimethylamino)but-2-en-1-one], for which the IC50 at HER2 WT and against HER2YVMA was < 100 nM each time.

Regarding `Cc1ccc(Oc2ccc(Nc3ncnc4sc5c(c34)CCN(C(=O)/C=C/CN3CC4CCC(C3)O4)C5)cc2C)cn1` [Compound 13], the half-maximal inhibitory concentration (IC50) is < 100 nM against HER2 WT and 100 to 1000 nM against HER2YVMA.

For `Cc1cc(Nc2ncnc3sc4c(c23)CCN(C(=O)/C=C/CN(C)C)C4)ccc1Oc1ccc(N(C)C)nc1` [Compound 158, (E)-4-(dimethylamino)-1-(4-((4-((6-(dimethylamino)pyridin-3-yl)oxy)-3-methylphenyl)amino)-5,8-dihydropyrido[4′,3′:4,5]thieno[2,3-d]pyrimidin-7(6H)-yl)but-2-en-1-one], the IC50 on HER2 WT and on HER2YVMA was < 100 nM throughout.

As to `Cc1nc2cc(Oc3ccc(Nc4ncnc5sc6c(c45)CCN(C(=O)/C=C/CN(C)C)C6)cc3C)ccn2n1` [Compound 127, (E)-4-(dimethylamino)-1-(4-((3-methyl-4-((2-methyl-[1,2,4]triazolo[1,5-a]pyridin-7-yl)oxy)phenyl)amino)-5,6-dihydropyrido[4′,3′:4,5]thieno[2,3-d]pyrimidin-7(8H)-yl)but-2-en-1-one], the 50% inhibitory concentration (IC50) is 100 to 1000 nM against HER2 WT and < 100 nM on HER2YVMA.

For `COc1cc(Nc2ncnc3sc4c(c23)CCN(C(=O)/C=C/CN(C)C)C4)ccc1Oc1ccccc1` [Compound 7, (E)-4-(dimethylamino)-1-(4-((3-methoxy-4-phenoxyphenyl)amino)-5,8-dihydropyrido[4′,3′:4,5]thieno[2,3-d]pyrimidin-7(6H)-yl)but-2-en-1-one], the IC50 against HER2 WT and at HER2YVMA was < 100 nM each time.

As to `Cc1cc(Nc2ncnc3sc4c(c23)CCN(C(=O)/C=C/CN2CCOCC2)C4)ccc1Oc1ccc2ncnn2c1` [Compound 12], the IC50 is < 100 nM against HER2 WT and 100 to 1000 nM against HER2YVMA.

With `Cc1ccc(Oc2ccc(Nc3ncnc4sc5c(c34)CCN(C(=O)/C=C/CN3CC4CC(C3)O4)C5)cc2C)cn1` [Compound 15], the half-maximal inhibitory concentration (IC50) against HER2 WT is < 100 nM; at HER2YVMA, 100 to 1000 nM.

For the molecule `C=CC(=O)N1CCc2c(sc3ncnc(Nc4ccc(Oc5cccnc5)c(Cl)c4)c23)C1` [Compound 6, 1-(4-((3-chloro-4-(pyridin-3-yloxy)phenyl)amino)-5,8-dihydropyrido[4′,3′:4,5]thieno[2,3-d]pyrimidin-7(6H)-yl)prop-2-en-1-one], the IC50 at HER2 WT and on HER2YVMA was < 100 nM in each case.

As for `Cc1ccc(Oc2ccc(Nc3ncnc4sc5c(c34)CC(C)N(C(=O)C=CCN(C)C)C5C)cc2C)cn1` (single isomer, unassigned) [Compound 161], the IC50 against HER2 WT and on HER2YVMA was < 100 nM in each case.

Turning to `Cc1ccc(Oc2ccc(Nc3ncnc4sc5c(c34)CCN(C(=O)/C=C/CN3CCCC34CCC4)C5)cc2C)cn1` [Compound 115], the IC50 against HER2 WT and at HER2YVMA was < 100 nM in each case.

Turning to `Cc1ccc(Oc2ccc(Nc3ncnc4sc5c(c34)CCN(C(=O)/C=C/CN3CC4CC4(CO)C3)C5)cc2C)cn1` (stereo not shown) [Compound 118], the IC50 against HER2 WT and at HER2YVMA was < 100 nM each time.

`Cc1ccc(Oc2ccc(Nc3ncnc4sc5c(c34)CCN(C(=O)/C=C/CN3CC4CCC3C4)C5)cc2C)cn1` (stereo not shown) [Compound 14]: the half-inhibitory concentration (IC50) on HER2 WT and against HER2YVMA was < 100 nM throughout.

Take `Cc1ccc(Oc2ccc(Nc3ncnc4sc5c(c34)C(C)CN(C(=O)C=CCN3CCOCC3)C5)cc2C)cn1` (single isomer, unassigned) [Compound 177]: the half-maximal inhibitory concentration (IC50) on HER2 WT and on HER2YVMA was < 100 nM each time.

As for `C=CC(=O)N1Cc2sc3ncnc(Nc4ccc(Oc5ccc(C)nc5)c(C)c4)c3c2C(C)C1` (single isomer, unassigned) [Compound 145], the IC50 at HER2 WT and on HER2YVMA was < 100 nM each time.

On to `Cc1ccc(Oc2ccc(Nc3ncnc4sc5c(c34)CCN(C(=O)/C=C/CN3CCCC(F)(CO)C3)C5)cc2C)cn1` (stereo not shown) [Compound 150], for which the IC50 on HER2 WT and against HER2YVMA was < 100 nM each time.

Consider `Cc1ccc(Oc2ccc(Nc3ncnc4sc5c(c34)C[C@@H](C)N(C(=O)/C=C/CN(C)C)[C@H]5C)cc2C)cn1` (racemic) [Compound 149, (E)-1-(6,8-cis-dimethyl-4-((3-methyl-4-((6-methylpyridin-3-yl)oxy)phenyl)amino)-5,8-dihydropyrido[4′,3′:4,5]thieno[2,3-d]pyrimidin-7(6H)-yl)-4-(dimethylamino)but-2-en-1-one], for which the IC50 against HER2 WT and at HER2YVMA was < 100 nM in each case.

As to `Cc1ccc(Oc2ccc(Nc3ncnc4sc5c(c34)CCN(C(=O)/C=C/CN3CC(C)OC(C)C3C)C5)cc2C)cn1` (stereo not shown) [Compound 117], the IC50 against HER2 WT and against HER2YVMA was < 100 nM each time.

In the case of `CC[C@H](NC/C=C/C(=O)N1CCc2c(sc3ncnc(Nc4ccc(Oc5ccc(C)nc5)c(C)c4)c23)C1)C(F)(F)F` [Compound 122], the IC50 against HER2 WT and against HER2YVMA was < 100 nM each time.

In the case of `Cc1ccc(Oc2ccc(Nc3ncnc4sc5c(c34)CCN(C(=O)/C=C/CN3C[C@H]4C[C@@H]3CC4C#N)C5)cc2C)cn1` (stereo partly shown) [Compound 120], the half-inhibitory concentration (IC50) at HER2 WT and against HER2YVMA was < 100 nM throughout.

`Cc1ccc(Oc2ccc(Nc3ncnc4sc5c(c34)CCN(C(=O)/C=C/CN3CCC[C@H](CO)C3)C5)cc2C)cn1` [Compound 155]: the IC50 against HER2 WT and on HER2YVMA was < 100 nM throughout.

Take `Cc1ccc(Oc2ccc(Nc3ncnc4sc5c(c34)C(C)N(C(=O)C=CCN(C)C)C5)cc2C)cn1` (single isomer, unassigned) [Compound 148]: the concentration for half-maximal inhibition (IC50) against HER2 WT and on HER2YVMA was 1000 to 10000 nM each time.

(Values after US20240391931A1 (Bristol-Myers Squibb Company, priority 2021, published 2024).)
